{"source": "patent US20030091555A1", "about": "“Bactericidal composition containing peptide and chelating agent” (NATIONAL AGRICULTURAL RESEARCH ORGANIZATION, priority 2001, published 2003)", "key": {"[1]": {"system": "Escherichia coli 06 JCM 5491", "assay": "MIC/MBC by viable count after 1 day cultivation", "assay_type": "cell-based", "conditions": "for MBC: Escherichia coli; for synergistic effects with thionin, compared with EDTA-2Na: with alpha-type thionin of wheat 10 μg/mL", "experimental": "(§1) Bacillus cereus was inoculated into a sensitive measurement medium (manufactured by Nissui Pharmaceutical Co., Ltd., Tokyo, Japan), and other bacteria such as food poisoning bacteria were inoculated into an LB medium (1% polypeptone, 0.5% yeast extract, 0.5% sodium chloride, pH 7.2) and incubated at 37° C. for 1 day.\n(§2) Then, after adding predetermined amounts of thionin and EDTA, the bacteria were inoculated so that the concentration of bacteria was about 1×10^6 cells/mL. After cultivating the bacteria for 1 day for other bacteria, the viable count was measured by a method of diluted plate culture. The concentration in which the viable count was decreased to 1/100 or less was defined as minimum bactericidal concentration (MBC) and the concentration in which the viable count was not increased was defined as minimum inhibitory concentration (MIC). The results obtained are shown in Tables 1, 2 and 3, as well as in FIG. 1."}, "[2]": {"system": "Salmonella typhimurium JCM 6977", "assay": "MIC/MBC by viable count after 1 day cultivation", "assay_type": "cell-based", "conditions": "for MBC: Salmonella enterica; for synergistic effects with thionin, compared with EDTA-2Na: with alpha-type thionin of wheat 10 μg/mL", "experimental": "as §1, §2"}, "E. coli": {"system": "E. coli", "conditions": "high concentration (10 mM); cited from earlier work"}, "V. parahaemolyticus": {"system": "V. parahaemolyticus", "conditions": "high concentration (10 mM); cited from earlier work"}, "[3]": {"conditions": "as food additive; cited from earlier work"}, "[4]": {"system": "Bacillus cereus IFO 15305", "assay": "MIC/MBC by viable count after 1 day cultivation", "assay_type": "cell-based", "conditions": "sensitive measurement medium, 37° C.", "experimental": "as §1, §2"}, "Bacillus cereus JCM 2152": {"system": "Bacillus cereus JCM 2152", "assay": "MIC/MBC by viable count after 1 day cultivation", "assay_type": "cell-based", "conditions": "sensitive measurement medium, 37° C.", "experimental": "as §1, §2"}, "[5]": {"system": "Escherichia coli 01:K1:H7 JCM 1649", "assay": "MIC/MBC by viable count after 1 day cultivation", "assay_type": "cell-based", "conditions": "LB medium, 37° C.", "experimental": "as §1, §2"}, "[6]": {"system": "Salmonella enteritidis IFO 3313", "assay": "MIC/MBC by viable count after 1 day cultivation", "assay_type": "cell-based", "conditions": "LB medium, 37° C.", "experimental": "as §1, §2"}, "[7]": {"system": "Vibrio parahaemolyticus IFO 12711", "assay": "MIC/MBC by viable count after 1 day cultivation", "assay_type": "cell-based", "conditions": "LB medium, 37° C.", "experimental": "as §1, §2"}, "guinea pig": {"system": "guinea pig", "conditions": "administered once with 103 to 229 mg/kg body weight, observed for 7 days; cited from earlier work"}, "trypsin": {"biological_target": "T1, trypsin (Bos taurus, UniProt P00760)", "T1 construct": "gene PRSS1", "T1 sequence (P00760 24-246)": "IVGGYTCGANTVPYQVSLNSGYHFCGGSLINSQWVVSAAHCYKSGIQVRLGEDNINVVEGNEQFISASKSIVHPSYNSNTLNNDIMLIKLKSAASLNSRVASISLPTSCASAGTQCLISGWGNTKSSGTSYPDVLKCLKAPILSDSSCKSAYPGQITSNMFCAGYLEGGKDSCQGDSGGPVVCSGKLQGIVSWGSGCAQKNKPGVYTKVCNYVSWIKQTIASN", "conditions": "cited from earlier work"}, "[8]": {"system": "test bacteria (food poisoning bacteria)", "assay": "MIC/MBC, text summary over the test bacteria", "assay_type": "cell-based", "conditions": "for MBC: added alone", "experimental": "as §1, §2"}, "[9]": {"conditions": "thionin added alone, LB medium, 37° C., 1 day"}, "[10]": {"conditions": "EDTA-2Na added alone, LB medium, 37° C., 1 day"}}, "data": [{"compound": "O=C(O)CN(CCN(CC(=O)O)CC(=O)O)CC(=O)O", "note": "[EDTA, ethylenediaminetetraacetic acid]", "values": [{"measurement": "MBC", "setting": "[1]; JCM5491, Thionin (10 μg/mL) +: with alpha-type thionin of wheat", "value": 1, "unit": "nM"}, {"measurement": "MBC", "setting": "[1]; JCM5491, Thionin (10 μg/mL) −: without alpha-type thionin of wheat", "value": 5, "unit": "nM"}, {"measurement": "synergistic effects with thionin, compared with EDTA-2Na", "setting": "[1]", "value": "identical to or higher than that of EDTA-2Na"}, {"measurement": "MBC", "setting": "[2]; Thionin (10 μg/mL) +: with alpha-type thionin of wheat", "value": 0.1, "unit": "nM"}, {"measurement": "MBC", "setting": "[2]; Thionin (10 μg/mL) −: without alpha-type thionin of wheat", "value": 5, "unit": "nM"}, {"measurement": "synergistic effects with thionin, compared with EDTA-2Na", "setting": "[2]", "value": "identical to or higher than that of EDTA-2Na"}, {"measurement": "antibacterial activity", "setting": "E. coli", "value": "shows antibacterial activity"}, {"measurement": "antibacterial activity", "setting": "V. parahaemolyticus", "value": "shows antibacterial activity"}, {"measurement": "ADI (Acceptable Daily Intake)", "setting": "[3]", "value": 2.5, "unit": "mg/kg body weight"}]}, {"compound": "O=C([O-])CN(CCN(CC(=O)[O-])CC(=O)[O-])CC(=O)[O-].[Na+].[Na+].[Na+].[Na+]", "note": "[EDTA-4Na, EDTA-tetrasodium salt]", "values": [{"measurement": "synergistic effects with thionin, compared with EDTA-2Na", "setting": "[1]", "value": "identical to or higher than that of EDTA-2Na"}, {"measurement": "synergistic effects with thionin, compared with EDTA-2Na", "setting": "[2]", "value": "identical to or higher than that of EDTA-2Na"}]}, {"compound": "thionin [reference compound]", "values": [{"measurement": "MIC Thionin", "setting": "[4]; thionin added alone", "value": "100< μg/mL"}, {"measurement": "MIC Thionin", "setting": "Bacillus cereus JCM 2152; thionin added alone", "value": 100, "unit": "µg/mL"}, {"measurement": "MIC Thionin", "setting": "[5]; thionin added alone", "value": "100< μg/mL"}, {"measurement": "MIC Thionin", "setting": "[1]; [9]", "value": 100, "unit": "µg/mL"}, {"measurement": "MIC Thionin", "setting": "[6]; thionin added alone", "value": "100< μg/mL"}, {"measurement": "MIC Thionin", "setting": "[2]; [9]", "value": 30, "unit": "µg/mL"}, {"measurement": "MIC Thionin", "setting": "[7]; thionin added alone", "value": 20, "unit": "µg/mL"}, {"measurement": "abnormality after administration", "setting": "guinea pig", "value": "no abnormality was observed"}, {"measurement": "decomposition by a digestive enzyme", "setting": "trypsin", "value": "rapid decomposition"}]}, {"compound": "O=C([O-])CN(CCN(CC(=O)[O-])CC(=O)O)CC(=O)O.[Na+].[Na+]", "note": "[EDTA-2Na, EDTA disodium]", "values": [{"measurement": "MBC EDTA-2Na", "setting": "[4]; EDTA-2Na added alone", "value": 0.2, "unit": "mM"}, {"measurement": "MBC EDTA-2Na", "setting": "Bacillus cereus JCM 2152; EDTA-2Na added alone", "value": 0.5, "unit": "mM"}, {"measurement": "MBC EDTA-2Na", "setting": "[5]; EDTA-2Na added alone", "value": 50, "unit": "mM"}, {"measurement": "MBC EDTA-2Na", "setting": "[1]; [10]", "value": 10, "unit": "mM"}, {"measurement": "MBC EDTA-2Na", "setting": "[6]; EDTA-2Na added alone", "value": "50< mM"}, {"measurement": "MBC EDTA-2Na", "setting": "[2]; [10]", "value": 20, "unit": "mM"}, {"measurement": "MBC EDTA-2Na", "setting": "[7]; EDTA-2Na added alone", "value": 1, "unit": "mM"}, {"measurement": "MBC of EDTA-2Na as compared with the addition of EDTA-2Na alone", "setting": "[8]; 10 μg/mL alpha-type thionin of wheat added simultaneously, food poisoning bacteria", "value": "decreased"}, {"measurement": "MBC", "setting": "[8]; Salmonella sp. and E. coli", "value": "≥ 10", "unit": "mM"}, {"measurement": "MBC", "setting": "[8]; other bacteria (not Salmonella sp., E. coli)", "value": "≤ 1", "unit": "mM"}]}]}
